Measurements taken from US20210052621A1, “METHODS FOR TREATING FLAVIVIRUSES AND ZIKA INFECTIONS” (THE REGENTS OF THE UNIVERSITY OF CALIFORNIA, priority 2017, published 2021).
“Also recorded” adds a separate entry of the source. Counter-ions that a name gives are not always drawn.

tested on: ZIKA in Vero cells; test: Screening of additional compounds for ZIKA levels using Vero cells (viral RNA released, qRT-PCR); type: cell-based, Zika virus; settings: 10 μM, viral RNA released by qRT-PCR
Experimental: FIG. 6. Screening of additional compounds for ZIKA levels using Vero cells (in 10 μM concentration). Methods of screening were as described herein. Viral RNA released was analyzed by qRT-PCR for ZIKA. Compounds (left to right): control, berberine, fluoxetine, formoterol, genistine, U0126, dibucaine, pirlindole, suramin, mycophenolic acid, polyhydroxyalkanoates, (PHA) and niclosamide.
FIG. 7. Screening of additional compounds for ZIKA levels using Vero cells (in 10 μM concentration) as described for FIG. 6. Compounds (left to right): clomiphene, amphotericin B, and toremifene.
FIG. 8. Screening of additional compounds for ZIKA levels using Vero cells (in 10 μM concentration) as described for FIG. 6.
FIG. 6 depicts ZIKV levels as determined by qRT-PCR for ZIKA in Vero cells at 10 μM concentration (left to right) of control, berberine, fluoxentine, formoterol, genistine, U0126, dibucaine, pirlindole, suramin, mycophenolic acid, PHA, and niclosamide.
FIG. 7 depicts dose response studies on ZIKV levels for clomiphene, amphotericin B, and toremifene.
FIG. 8 depicts ZIKV levels after administration of various agents. […] Zidovudine. Acyclovir. Drostanolone Propionate, Dapivirine (TMC120), Tilorone hydrochloride, and Docosanol.

SMILES	ZIKV levels / ZIKV load (Hits)
Cc1cc(C)c(Nc2ccnc(Nc3ccc(C#N)cc3)n2)c(C)c1 [Dapivirine (TMC120), 4-{[4-(mesitylamino)-2-pyrimidinyl]amino}benzonitrile]	reduce ZIKV load
CCN(CC)CCOc1ccc2c(c1)C(=O)c1cc(OCCN(CC)CC)ccc1-2.Cl [Tilorone hydrochloride, 2,7-Bis(2-diethylaminoethoxy)fluoren-9-one hydrochloride]	reduce ZIKV load
CCCCCCCCCCCCCCCCCCCCCCO [Docosanol]	reduce ZIKV load
Cc1cn([C@H]2C[C@H](N=[N+]=[N-])[C@@H](CO)O2)c(=O)[nH]c1=O [Zidovudine, 3′-deoxy-3′-azido-thymidine]	reduce ZIKV load
Nc1nc2c(ncn2COC(CO)CO)c(=O)[nH]1 [Ganciclovir, 9-(1,3-dihydroxy-2-propoxymethyl)guanine]	reduce ZIKV load
CCN(CC)CCOC(=O)c1ccc(N)cc1 [Procaine hydrochloride, 4-amino-, 2-(diethylamino) ethyl ester monohydrochloride]	reduce ZIKV load

tested on: ZIKV in human microglial cell line; test: ZIKV replication in microglia treated with nucleoside metabolic inhibitors (RT-qPCR, immunohistochemistry); type: cell-based, Zika virus; settings: MOI of 1, 1 μM and 10 μM, 48 hpi
Experimental: FIGS. 14A-14D. Nucleoside Metabolic Inhibitors Attenuate ZIKV Replication. (FIG. 14A) ZIKV replication assessed by RT-qPCR analysis 48 hours post-infection in mock, ZIKV only, ZIKV plus 1 μM floxuridine or ZIKV plus 10 μM floxuridine treated microglia. Data are presented as the mean±SEM of n=3. *p<0.05, **p<0.01 by t-test. (FIG. 14B) Immunohistochemistry of ZIKV gene expression in mock, ZIKV only, ZIKV plus 1 μM floxuridine (FUDX1) or ZIKV plus 10 μM floxuridine (FUDX10) treated microglia. Cells were stained with anti-flavivirus envelope protein (ZIKVE), and nuclei were visualized with Hoechst 33258. (FIG. 14C) ZIKV replication assessed by RT-qPCR analysis 48 hours post-infection in mock, ZIKV only, ZIKV plus fluorouracil or ZIKV plus 10 μM fluorouracil treated microglia. Data are presented as the mean±SEM of n=3. *p<0.05, **p<0.01 by t-test. […]
Since metabolic processes are the most dysregulated pathways during ZIKV infection at the transcriptome level, we hypothesized that inhibition of these pathways could be exploited for therapeutic effects. […] The effect of the antimetabolites floxuridine (FIGS. 14A-14B) and flurouracil (FIGS. 14C-14D) on ZIKV replication was assessed 48 hpi at the RNA and protein level by RT-qPCR and immunohistochemistry, respectively.
Drug Treatment. […] ZIKV RNA was quantified by using specific primers by SYBR Green PCR Master Mix (Bio-Rad) using a Roche LightCycler 480. […]

SMILES	ZIKV replication (RT-qPCR and immunohistochemistry)
O=c1[nH]c(=O)n([C@H]2C[C@H](O)[C@@H](CO)O2)cc1F [floxuridine]	inhibited ZIKV more efficiently in a dose dependent manner than flurouracil; also recorded: dose-dependent inhibition of ZIKV replication; also recorded: abrogated ZIKV replication
O=c1[nH]cc(F)c(=O)[nH]1 [flurouracil]	affected ZIKV

tested on: Zika virus in 293 T cells; test: Dose dependent inhibition of Zika virus in 293 T cells, IC50 calculated; type: cell-based; settings: MOI of 5, different concentration of drugs
Experimental: FIGS. 2A-2D. […] FIG. 2A—Lopinavir. FIG. 2B—Daclatasvir. FIG. 2C—Oxyclozanide. FIG. 2D—Rafoxanide.
Conditions: Zika virus in 293 T cells at the MOI of 5 using different concentration of drugs. IC50 was calculated.

SMILES	Dose dependent inhibition of Zika virus
O=C(Nc1ccc(Oc2ccc(Cl)cc2)c(Cl)c1)c1cc(I)cc(I)c1O [Rafoxanide]	Dose dependent inhibition
Cc1cccc(C)c1OCC(=O)N[C@@H](Cc1ccccc1)[C@@H](O)C[C@H](Cc1ccccc1)NC(=O)[C@H](C(C)C)N1CCCNC1=O [Lopinavir, (2S)—N-[(2S,4S,5S)-5-[2-(2,6-dimethylphenoxy)acetamido]-4-hydroxy-1,6-diphenylhexan-2-yl]-3-methyl-2-(2-oxo-1,3-diazinan-1-yl)butanamide]	Dose dependent inhibition
O=C(Nc1cc(Cl)cc(Cl)c1O)c1c(O)c(Cl)cc(Cl)c1Cl [Oxyclozanide]	Dose dependent inhibition

tested on: ZIKA in 293 cells; test: ZIKA inhibition in 293 cells visualized by immune staining; type: cell-based, Zika virus; settings: 20 μM
Source text: FIGS. 9A-9K. […] Drugs: mock (FIG. 9A), DMSO (FIG. 9B), PHA-690509 (FIG. 9C), formoterol (FIG. 9D), fluoxetine (FIG. 9E), genistein (FIG. 9F), U0126 (FIG. 9G), berberine (FIG. 9H), dibucaine (FIG. 9I), pirlindole (FIG. 9J), and suramin (FIG. 9K). Left panels: DAPI; right panels: ZIKV.
Agents in order (top to bottom): mock, DMSO, PHA-690509, formoterol, fluoxetine, genistein, U0126, berberine, dibucaine, pirlindole, and suramin.

SMILES	ZIKA inhibition visualized by immune staining
COc1ccc(CC(C)NCC(O)c2ccc(O)c(NC=O)c2)cc1 (centres unmarked) [formoterol]	ZIKA inhibition
N#CC(=C(/N)Sc1ccccc1N)/C(C#N)=C(\N)Sc1ccccc1N [U0126]	ZIKA inhibition
Cc1ccc(C(=O)Nc2ccc(S(=O)(=O)O)c3cc(S(=O)(=O)O)cc(S(=O)(=O)O)c23)cc1NC(=O)c1cccc(NC(=O)Nc2cccc(C(=O)Nc3cc(C(=O)Nc4ccc(S(=O)(=O)O)c5cc(S(=O)(=O)O)cc(S(=O)(=O)O)c45)ccc3C)c2)c1 [suramin, 8,8′-{Carbonylbis[imino-3,1-phenylenecarbonylimino(4-methyl-3,1-phenylene)carbonylimino]}di(1,3,5-naphthalenetrisulfonic acid)]	ZIKA inhibition
COc1ccc2cc3[n+](cc2c1OC)CCc1cc2c(cc1-3)OCO2 [berberine]	ZIKA inhibition
CC(=O)Nc1ccc([C@H](C)C(=O)Nc2ncc(C(C)C)s2)cc1 [PHA-690509]	ZIKA inhibition
Cc1ccc2c(c1)c1c3n2CCNC3CCC1 (centres unmarked) [pirlindole]	ZIKA inhibition
CNCCC(Oc1ccc(C(F)(F)F)cc1)c1ccccc1 (centres unmarked) [fluoxetine, N-methyl-3-phenyl-3-[4-(trifluoromethyl)phenoxy]propan-1-amine]	ZIKA inhibition
CCCCOc1cc(C(=O)NCCN(CC)CC)c2ccccc2n1 [dibucaine]	ZIKA inhibition
O=c1c(-c2ccc(O)cc2)coc2cc(O)cc(O)c12 [genistein]	ZIKA inhibition
